What was measured:
[1] = test system: Cells; experiment: Measurement of lactate change amount within cells; format: cell-based; conditions: PCA extract of cells, lactate measured from supernatant (Megazyme, K-LATE)
Outline: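 Cells were extracted in 6% perchloric acid and centrifuged (13,000 rpm, 10 min), and the dried pellet was weighed. The supernatant was neutralised with 1 M KOH, brought up in 0.33 M potassium phosphate pH 7.5 and re-centrifuged. Lactate was measured in this supernatant with a commercial lactate kit.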

[2] = test system: C57BL/6J Lep ob/ob mice; experiment: Weight loss effects in obese mice (ob/ob); format: in vivo; conditions: vs 0.1% SLS controls
Outline: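 Male-unspecified C57BL/6J Lep ob/ob mice (6–15 weeks old, n=3 per group) on low-fat chow received compound by daily oral gavage (40–150 mg/kg, 10 ml/kg) for 6 days to 2 weeks, with 0.1% SLS vehicle as control. Body weight was recorded daily, gain calculated from day 1 to the day before termination, and food intake measured twice weekly.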

[3] = test system: C57BLKS/J db/db mice; experiment: Glucose level and glycosylated hemoglobin (Hb1Ac) in fasted diabetic mice (db/db); format: in vivo; conditions: Exp. Ex. 5, FIG. 9: 10 week-old db/db mice, 40, 80, 120 mg/kg oral, fasted for 14 hours, vs 0.1% SLS controls
Description: 10 week-old C57BLKS/J db/db mice having genetic obesity characteristics available from ORIENTBIO were prepared. Two mice were raised in each polycarbonate breeding cage (200 W×260 L×130H (mm), Three-shine) in which temperature was 22 to 24° C., relative humidity was 30 to 50%, illuminance was 150 to 300 lux, night and day were 12 hours, and exhaust was performed at 10 to 15 air changes per hour. As a feed, low fat diet (11.9 kcal % fat, 5053, Labdiet) manufactured by ORIENTBIO was used. The feed was contained in a feeder and free intake was allowed. As drinking water, water, which was contained in a 250 mL polycarbonate based bottle, purified through a filter and a sterilizer was used and free intake was allowed.
The compound according to Example 1 synthesized in the present invention was orally administered to three C57BLKS/J db/db mice in amounts of 40 mg/kg, 80 mg/kg, and 120 mg/kg, respectively. For administration, a disposable syringe fitted with a sonde for oral administration was used and 10 ml/kg of the compound was orally administered into the stomach. As controls, three C57BLKS/J db/db mice were administered 0.1% SLS in an amount of 120 mg/kg in the same manner as described above. After administration, the mice were fasted for 14 hours and glucose levels and glycosylated hemoglobin thereof were measured. Results are illustrated in FIG. 9 below.

[4] = Exp. Ex. 3-1, FIG. 1: 10 week-old ob/ob mice, 40, 80, 120 mg/kg oral once every day, two weeks
[5] = Exp. Ex. 3-2, FIG. 2: 6 week-old ob/ob mice, 100 mg/kg oral
[6] = Exp. Ex. 3-10, FIG. 13: 6 week-old ob/ob mice, 100 mg/kg oral, two weeks
[7] = Exp. Ex. 3-11, FIG. 14: 6.5 week-old ob/ob mice, 100 mg/kg oral, one week
[8] = Exp. Ex. 3-12, FIG. 15: 6 week-old ob/ob mice, 100 mg/kg oral, two weeks
[9] = Exp. Ex. 3-13, FIG. 16: 6 week-old ob/ob mice, 100 mg/kg oral, one week

Compound: CC(C)c1nc2c([nH]1)C(=O)C(=O)c1ccccc1-2 [Example 1, 2-isopropyl-1H-naphtho[2,1-d]imidazole-4,5-dione]
- Lactate change amount within cells (nmol/mg cell) [1]: 6.1 nmol/mg cell
- intake amount [2, 4]: significantly decreased
- weight change [2, 4]: significantly decreased
- weight increase ratio [2, 4]: significantly decreased
- intake amount [2, 5]: significantly decreased
- weight change [2, 5]: significantly decreased
- weight increase ratio [2, 5]: significantly decreased
- intake amount [2, 6]: significantly decreased in some sections
- weight change [2, 6]: significantly decreased in some sections
- weight increase ratio [2, 6]: significantly decreased in some sections
- intake amount [2, 7]: significantly decreased in some sections
- weight change [2, 7]: significantly decreased in some sections
- weight increase ratio [2, 7]: significantly decreased in some sections
- intake amount [2, 8]: significantly decreased in some sections
- weight change [2, 8]: significantly decreased in some sections
- weight increase ratio [2, 8]: significantly decreased in some sections
- intake amount [2, 9]: significantly decreased in some sections
- weight change [2, 9]: significantly decreased in some sections
- weight increase ratio [2, 9]: significantly decreased in some sections
- glucose level [3]: significantly decreased
- glycosylated hemoglobin (Hb1Ac) [3]: significantly decreased

Source: patent publication US10766882B2, “1,2-naphthoquinone based derivative and method of preparing the same” (YUNGJIN PHARM. CO., LTD., priority 2013, dated 2020)
